This passage reports Ki and Ratio Ki results from ChEMBL document CHEMBL2311291, “Novel P2 tris-tetrahydrofuran group in antiviral compound 1 (GRL-0519) fills the S2 binding pocket of selected mutants of HIV-1 protease” (J Med Chem, 2013).

The target of assay [1] is Human immunodeficiency virus type 1 protease (Human immunodeficiency virus 1, UniProt Q72874, I54M). The assay can be described thus: Inhibition of HIV-1 protease I54M mutant using Abz-Thr-Ile-Nle-p-nitro-Phe-Gln-Arg-NH2 as substrate incubated for 5 mins prior to substrate addition measured for 5 mins by fluorescence assay.
Assay [2] deals with Human immunodeficiency virus type 1 protease (Human immunodeficiency virus 1, UniProt Q72874, I50V). The assay can be described thus: Inhibition of HIV-1 protease I50V mutant using Abz-Thr-Ile-Nle-p-nitro-Phe-Gln-Arg-NH2 as substrate incubated for 5 mins prior to substrate addition measured for 5 mins by fluorescence assay.
For assay [3], the target named is Human immunodeficiency virus type 1 protease (Human immunodeficiency virus 1, UniProt Q72874, D30N). Put plainly: Inhibition of HIV-1 protease D30N mutant using Abz-Thr-Ile-Nle-p-nitro-Phe-Gln-Arg-NH2 as substrate incubated for 5 mins prior to substrate addition measured for 5 mins by fluorescence assay.
Assay [4] addresses Human immunodeficiency virus type 1 protease (Human immunodeficiency virus 1, UniProt Q72874, R8Q). Put plainly: Inhibition of HIV-1 protease R8Q mutant using Abz-Thr-Ile-Nle-p-nitro-Phe-Gln-Arg-NH2 as substrate incubated for 5 mins prior to substrate addition measured for 5 mins by fluorescence assay.
The target in assay [5] is Protease (Human immunodeficiency virus 1, UniProt Q9YQ12). The assay can be described thus: Inhibition of HIV-1 wildtype protease using Abz-Thr-Ile-Nle-p-nitro-Phe-Gln-Arg-NH2 as substrate incubated for 5 mins prior to substrate addition measured for 5 mins by fluorescence assay.
In assay [6] the test system is Human immunodeficiency virus 1. Put plainly: Ratio of Ki for HIV-1 protease V82A mutant to Ki for HIV-1 wildtype protease.
The subject of assay [7] is Human immunodeficiency virus 1. Put plainly: Ratio of Ki for HIV-1protease I54M mutant to Ki for HIV-1 wildtype protease.
The subject of assay [8] is Human immunodeficiency virus 1. Put plainly: Ratio of Ki for HIV-1 protease D30N mutant to Ki for HIV-1 wildtype protease.
Assay [9] relates to Human immunodeficiency virus 1. Put plainly: Ratio of Ki for HIV-1 protease I50V mutant to Ki for HIV-1 wildtype protease.
For assay [10], the target named is Human immunodeficiency virus type 1 protease (Human immunodeficiency virus 1, UniProt Q72874, V82A). The assay can be described thus: Inhibition of HIV-1 protease V82A mutant using Abz-Thr-Ile-Nle-p-nitro-Phe-Gln-Arg-NH2 as substrate incubated for 5 mins prior to substrate addition measured for 5 mins by fluorescence assay.
In assay [11] the test system is Human immunodeficiency virus 1. Put plainly: Ratio of Ki for HIV-1 protease R8Q mutant to Ki for HIV-1 wildtype protease.

Sequence of Protease (Q9YQ12 whole entry): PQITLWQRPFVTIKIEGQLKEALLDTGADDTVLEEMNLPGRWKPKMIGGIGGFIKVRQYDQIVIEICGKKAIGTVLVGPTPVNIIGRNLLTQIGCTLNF

Turning to `COc1ccc(S(=O)(=O)N(CC(C)C)C[C@@H](O)[C@H](Cc2ccccc2)NC(=O)O[C@H]2CO[C@H]3O[C@@H]4OCC[C@@H]4[C@H]32)cc1`, the Ki (usually the dissociation constant of the complex between target and ligand, obtained from inhibition or displacement) in assay [1] came to 3.5 nM; in assay [2], 30.9 nM; in [3] it was 8.9 nM; in [4], 1.2 nM; in [5], 0.5 nM; in [10], 3.2 nM. The Ratio Ki in [6] was 6; in [7], 7; in assay [8], 18; in [9], 60; in assay [11], 2.
